These results are taken from a melting point compilation (Tetko et al.; mined from patent text by program, amines drawn as free bases though some values may be those of a salt).

Structures are written as SMILES.

The term melting point denotes the temperature, or range, at which the solid turns liquid. With `O=C1CCC(N2Cc3c(OCc4ccc(CN5CCN(CC6CC6)CC5)cc4)cccc3C2=O)C(=O)N1` (stereo not given), the melting point was in the range of 176 to 178 °C. With `COc1ccc2c(c1)c1c(n2C)CCC(Cc2nc[nH]c2C)C1=O` (stereo not given) the figure was 227 to 229 °C; with `CCCCC(=O)c1cc(C(=O)O)c2cc(Cc3ccc(F)cc3)cnc2c1O`, 227 to 229 °C.

In turn, `CCOC(=O)c1cn(CC)c2sc(C=O)cc2c1=O` gave a melting point of 205 °C.

For `CNc1nc(Nc2ccc(Cl)c(Cl)c2)ncc1NC(=O)OC`, the melting point is 303 to 305 °C. As for `CC(C)c1nc(Cl)nc(-c2ccc(F)cc2)c1Br`, the figure is 99 to 101 °C; as for `CC(=O)c1cccc(Nc2cc(C)nc(N)n2)c1`, 194 to 196 °C; as for `CNC(=S)NCCCCc1nc[nH]c1Br`, 153 to 155 °C. Regarding `CCCn1nc(-c2sc(C(=O)NC3CC3)nc2-c2ccccc2)ccc1=O`, the melting point lay in the range of 146 to 147 °C. `Nc1nc2cccnc2n1Cc1ccco1` had a melting point of 193 °C. Turning to `Cc1cc(NC(=O)c2ccc(F)cc2)c(C)cc1N`, the melting point was 174 to 176 °C. The compound `CC(C)=NNc1cc2c(nn1)CCN(C(=O)CC(c1ccccc1)c1ccccc1)C2` registered a melting point of 172 to 175 °C.

`COc1ccc2ncc(C#N)c(Nc3ccc(Cl)cc3F)c2c1` returned a melting point of more than 250 °C. `NC(=O)C(F)(F)C(F)(F)C(=O)C(F)(F)F` gave a melting point of 82 to 87 °C. With `CC1c2c(Cl)cccc2N=C2NC(=O)CN21` (stereo not given) the figure was 252 °C; with `Cc1ccccc1CCc1nc2cc(Cl)c(S(N)(=O)=O)cc2[nH]1`, 205 to 208 °C; with `CCOC(=O)C(Cc1ccc(OCc2ccccc2)cc1)Oc1ccc(OC(F)(F)F)cc1` (stereo not given), 34 to 36 °C.

In the case of `O=[N+]([O-])c1ccc(CO)cc1OC1CCCC1`, the melting point came out at 54 °C.

Compound `CCOCCc1c(-c2ccccc2)nc(Cl)n2ncnc12` gave a melting point of 134 to 135 °C. `O=C(Nc1ccccc1Sc1ccccc1)N[C@@H](Cc1ccc(NC(=O)c2c(Cl)cccc2Cl)cc1)C(=O)O` returned a melting point of 220 °C. The compound `CC(C)c1ccc(N2COCN(C)C2=O)cc1F` showed a melting point of 45 °C. As for `Cc1ccc(S(=O)(=O)OCC2Cc3cccc(O)c3O2)cc1` (stereo not given), the melting point was in the range of 122 to 125 °C.

As to `CC(C)(NC(=O)C(O)C(Cc1ccc(S(C)(=O)=O)cc1)NC(=O)OCc1ccccc1)C(=O)O` (stereo not given), the melting point is 146 to 147 °C. Take `Clc1nc(N2CCOCC2)nc(N2CCOCC2)n1`: the melting point is 174 °C. In the case of `CCCCc1cnc(-c2ccc(C#N)cc2)nc1`, the melting point was in the range of 60.9 to 61.8 °C. In turn, `c1ccc(-c2cccc3c2CCN(Cc2c[nH]c4ncccc24)C3)cc1` yielded a melting point of 202 to 204 °C. `NNc1ccc(C2CCCCC2)cc1` yielded a melting point of 115 to 116 °C. Take `CN1Cc2ccc(NC(=O)N[C@@H]3c4cc(C#N)ccc4OC(C)(C)[C@H]3O)cc2C1`: the melting point is 220 to 222 °C.

Regarding `CCCCCCn1c(C)cc(C)c(C(=O)O)c1=O`, the melting point was 79 to 82.5 °C. `O=C(O)CCc1[nH]nc2c1CCCCC2` yielded a melting point of 102 to 105 °C. With `CCn1ncc(OCc2ccc(C(=O)c3ccc(Cl)cc3)s2)c(Cl)c1=O` the figure was 168 °C. In the case of `IC#CCn1c2ccccc2c2ccccc21`, the melting point was 151 to 152 °C. `CCOC(=O)c1ccc(NC(=O)NC2CN(C3CCCCC3)c3ccccc3N(CC(=O)c3cccs3)C2=O)cc1` (stereo not given) showed a melting point of 219 to 220 °C. On to `O=C(NCc1ccccc1)c1cccc(-c2nc(=O)c3ccccc3s2)n1`, for which the melting point lay within 197 to 198 °C. `Cc1cc(N)n(-c2ccc(Cl)cc2C)n1` gave a melting point of 86 to 87 °C. Compound `CC(C)(C)C1=CC(O)(c2ccc(F)cc2)C=C(C(C)(C)C)C1=O` returned a melting point of 123 to 125 °C. With `CC=CCn1c(Nc2cc(C)cc(C)c2)c(CC)c(=O)[nH]c1=O` the figure was 190 to 192 °C.

For `CC1(C)CCC(C)(C)c2cc3[nH]c(S)nc3cc21`, the melting point was more than 300 °C.

`COc1cc(C)c2c(c1OC)CCC1C(=O)N(C)C(=O)C21` (stereo not given): the melting point lay within 167 to 169 °C. As for `COc1cccc(-c2cc(C(=O)NCCCCCCCCc3ccccc3)cc(-c3cccc(OC)c3OCC(=O)O)c2)c1`, the melting point fell in the range of 67.3 to 68.7 °C.

`CC(C)(C)OC(=O)N1CCN(CCOc2cc(-c3ccccc3)on2)CC1` gave a melting point of 110 to 111 °C. Compound `COc1ccc(-c2cc3nccnc3[nH]2)cc1OCCO` had a melting point of 203 to 205 °C. With `COc1ccc(C(Cn2cc[nH]c2=O)=NO)cc1OC1CCCC1`, the melting point came out at 191 °C. For `COC(=O)COc1ccc(-c2ccc(C(=O)OCc3ccccc3)cc2)cc1-c1ccc2c(c1)C(C)(C)CCC2(C)C`, the melting point was 104 to 106 °C.

On to `Cn1c(=O)c(C#N)c(N2CCN(C(=O)c3ccco3)CC2)c2cc(F)ccc21`, for which the melting point stood at 263 °C. Compound `NC(=O)N(O)CC=Cc1ccoc1` registered a melting point of 136 to 137 °C.

In turn, `CC1(C)CC(=O)c2ccc(C#Cc3cccnc3)nc2C1` registered a melting point of 108 to 109 °C.

As to `CCCCC(CC)COC(=O)c1cc(CN(CC(=O)O)CC(=O)O)c(O)c(CN(CC(=O)O)CC(=O)O)c1` (stereo not given), the melting point lay within 133 to 141 °C. `Cc1cc(I)cc2[nH]c(C(=O)O)cc(=O)c12` displayed a melting point of 294 °C.

Take `O=C(O)c1ccc(OC23CC4CC(CC(C4)C2)C3)cc1`: the melting point is 223 to 226 °C. For `Cc1ncc2n1-c1ccc(Cl)cc1C(c1ccccc1F)N(N=O)C2` (stereo not given), the melting point lay within 139 to 145 °C. `CCCCCCC(=O)c1ccc2c(c1)CC(=O)O2`: the melting point was 64 to 67 °C. Compound `CCC[C@H]1C=C(C(=O)OCC)OC(=O)[C@H]1Cc1ccccc1` came in with a melting point of 77 to 81 °C.

As to `CCCCCCCNC(=O)N(C)c1cccc(-c2ccc(C=CC(=O)O)cc2)c1`, the melting point was 125 to 126 °C. In turn, `CC1CN(c2c(F)cc3c(=O)c(C(=O)O)cn(C4CC4)c3c2Cl)CC1NC(=O)OC(C)(C)C` (stereo not given) gave a melting point of 210 to 213 °C. With `Cn1c(=O)c2c(ncn2CN2CCCC2)n(C)c1=O`, the melting point was in the range of 105 to 108 °C. On to `Cc1cc(I)ccc1Nc1c(-c2nnn[nH]2)ccc(F)c1F`, for which the melting point was 83.4 to 88.7 °C. `COCc1cn(Cc2ccccc2)c(=O)[nH]c1=O` had a melting point of 134 to 136 °C. Take `CN1Cc2ccccc2C(=O)c2c(CC(=O)O)cccc21`: the melting point was in the range of 178 to 181 °C.

For the compound `CC(C)c1nc2ccccc2n1CCCCCSc1nc(-c2ccc(N(C)C)cc2)c(-c2ccc(N(C)C)cc2)[nH]1`, the melting point lay within 110 to 112 °C. For the compound `CC(C)(C)NCC(O)COc1ccccc1C1=NNC(=O)CC1` (stereo not given), the melting point was 138 to 141 °C. In turn, `CCC(COC(C)=O)Nc1c(-c2c(F)cc(F)cc2F)c(Cl)nc2ncnn12` (stereo not given) showed a melting point of 39 to 42 °C. Compound `Cc1ccccc1C1C(=O)CC2CCCCC2C1=O` (stereo not given) came in with a melting point of 165 to 167 °C. For the compound `Clc1nc(N2CCCCC2)c2ncnc(Cl)c2n1`, the melting point is 114 to 117 °C.

Turning to `O=S1(=O)CCC(c2cc(F)ccc2F)(S(=O)(=O)c2ccc(Cl)cc2)CC1`, the melting point is 204 to 206 °C. Compound `O=c1nc(-c2cccc(CSc3ccncc3)n2)sc2ccccc12` had a melting point of 182 °C. Consider `O=C1CC(/C=C/c2ccccc2)Nc2ccccc2N1Cc1ccccc1` (stereo not given), for which the melting point was in the range of 186 to 187 °C. As for `CCOC(=O)C(C)(C)Oc1ccc(-c2ccc(CNC(=O)c3cc(Cl)ccc3OC)cc2)cc1`, the melting point was less than 20 °C. The compound `O=c1c2c(CCc3cccc([N+](=O)[O-])c3)n[nH]c2c2cccnc2n1-c1ccccc1` gave a melting point of 245 to 247 °C. With `O=C(Cn1c(=O)sc2ncc(Cl)cc21)N1CCN(CCO)CC1`, the melting point lay in the range of 198 to 200 °C.

In the case of `O=C(c1ccco1)N1CCN(c2cc(-c3ccc(F)cc3)c3c(n2)CCC3)CC1`, the melting point fell in the range of 165 to 166 °C. For `CCc1cc(OCc2ccc(-c3ccccc3-c3nnnn3-c3ccc(C#N)cc3)cc2)c2ccccc2n1`, the melting point was in the range of 165 to 166 °C.

`CC(C)(C)NCC(O)COc1ccc2oc(-c3ccc(O)c(O)c3)cc(=O)c2c1` (stereo not given): the melting point is 193 °C. For the compound `CC(C)(C)c1cc(CCc2ccccc2NC(=O)NCC(C)(C)c2ccc(N3CCCC3)cc2)cc(C(C)(C)C)c1O`, the melting point lay within 195 to 196 °C.

In the case of `CC(C)c1cccc(S(=O)(=O)n2c(CCCC(=O)O)cc3nc(Cl)ccc32)c1`, the melting point is 119 °C. Compound `COc1ccc(C(=O)c2cccc(OCc3nc(-c4ccccc4)oc3C)c2)c(OCCOC(C)=O)c1` had a melting point of 90 to 91 °C. With `CCOC(=O)c1cc2n(c1)CN(C(=O)OCC)c1c(OC)cccc1-2` the figure was 172 to 174 °C; with `COCc1cc2ccccc2oc1=Nc1ccccc1`, 64 to 65 °C.

For the compound `COC(=S)NC[C@H]1CN(c2ccc(-c3nc(Cn4cccn4)cs3)c(F)c2)C(=O)O1`, the melting point is 157 to 158 °C.

`COc1ccc(OC)c(CN[C@H]2[C@H]3CCN(C[C@@H]3C(N)=O)[C@H]2C(c2ccccc2)c2ccccc2)c1` (relative stereo) returned a melting point of 127 to 129 °C. The compound `Oc1cc2c(nn1)CCCCCCCCCC2` showed a melting point of 188 to 189 °C. `CCCCOc1cc(/C=C/C(=O)NS(=O)(=O)CCC(C)C)n(Cc2ccc(Cl)cc2Cl)n1` had a melting point of 119 to 120 °C.

`CSC(NCc1ccc(N)cc1)=C(C#N)C#N` registered a melting point of 100 to 102 °C. The compound `CC(C)C(C(=O)O)c1ccc(OC(F)F)c([N+](=O)[O-])c1` (stereo not given) registered a melting point of 88 to 90 °C. As for `O=C(NCc1ccccc1)c1ccnc(NC(=O)c2cccc(F)c2)c1`, the figure is 140 to 143 °C. For the compound `O=C(Nc1cccc2[nH]ccc12)c1ccccc1OCCCCl`, the melting point is 140 °C. Consider `CC(C)(C)OC(=O)NC1C(=O)N(OCc2ccccc2)C12CCC2` (stereo not given), for which the melting point was in the range of 156 to 157 °C. As for `CSc1c(Cl)ccc(C(=O)O)c1F`, the figure is 183 to 185 °C. The compound `C#Cc1ccc(Nc2c(C(=O)c3ccccn3)ccc(F)c2F)c(F)c1` displayed a melting point of 109 to 111 °C. `CCOC(=O)CSC1=CC(=NS(=O)(=O)c2cccs2)c2ccccc2C1=O` had a melting point of 110 to 112 °C.
